Values quoted from earlier work, collected in patent US20060052382A1, “3-Amino-4-phenylbutanoic acid derivatives as dipeptidyl peptidase inhibitors for the treatment or prevention of diabetes” (priority 2002, published 2006).

Tests used:
cardiac allograft = details: rats; Transplantation, 63: 1495-1500 (1997)
hematopoiesis = details: mouse, cyclophosphamide-induced neutropenia; WO 99/56753
DP-IV = target: T1, DP-IV (Homo sapiens, UniProt P27487); details: plasma
T1 construct: GRF is rapidly degraded in plasma to GRF[3-44]
T1 sequence (P27487 39-766 limits assumed): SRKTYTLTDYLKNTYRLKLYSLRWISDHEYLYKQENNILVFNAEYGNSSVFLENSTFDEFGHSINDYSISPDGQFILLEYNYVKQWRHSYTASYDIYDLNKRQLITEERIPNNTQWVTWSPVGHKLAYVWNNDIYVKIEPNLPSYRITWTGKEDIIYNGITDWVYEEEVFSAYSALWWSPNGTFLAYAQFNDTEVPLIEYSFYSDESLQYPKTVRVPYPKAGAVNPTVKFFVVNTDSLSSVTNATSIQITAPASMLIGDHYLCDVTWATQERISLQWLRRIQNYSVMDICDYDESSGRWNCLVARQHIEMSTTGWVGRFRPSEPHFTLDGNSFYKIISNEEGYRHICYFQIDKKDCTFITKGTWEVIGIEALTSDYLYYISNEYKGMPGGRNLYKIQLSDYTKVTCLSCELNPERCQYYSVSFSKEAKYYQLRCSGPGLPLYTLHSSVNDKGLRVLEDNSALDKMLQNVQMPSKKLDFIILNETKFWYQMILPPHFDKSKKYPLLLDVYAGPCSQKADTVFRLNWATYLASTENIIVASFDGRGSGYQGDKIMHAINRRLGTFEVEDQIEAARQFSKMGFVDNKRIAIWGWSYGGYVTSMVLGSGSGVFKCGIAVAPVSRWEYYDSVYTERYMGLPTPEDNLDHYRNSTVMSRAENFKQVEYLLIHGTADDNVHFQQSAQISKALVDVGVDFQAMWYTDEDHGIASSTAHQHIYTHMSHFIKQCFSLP

For `CC(C)N1CCC(c2ccccc2)(c2ccccc2)CC1` [Prodipine, Pro-Pro-diphenyl-phosphonate], the cardiac allograft survival (cardiac allograft) is listed as “double cardiac allograft survival in rats from day 7 to day 14”.
For `CC(C)[C@H](N)C(=O)N1CCC[C@H]1B(O)O` [Val-Boro-Pro], the stimulation of hematopoiesis (hematopoiesis) is given as “stimulated hematopoiesis”.
For diprotin A, the “prevention of GRF degradation to GRF[3-44]” value (DP-IV) is given as “prevented”.
